Assay [1] addresses T1, PAF receptor (Oryctolagus cuniculus, UniProt G1TEI7).
T1 construct: endogenous in cells; host or cells: rabbit platelets (male New Zealand White)
The experiment in a line: Inhibition of PAF-induced aggregation in rabbit platelet rich plasma. The assay is classed as cell-based, rabbit (male New Zealand White). The protocol:
Test compounds were evaluated as PAF receptor antagonists in vitro by measuring inhibition of PAF (platelet activating factor) induced platelet aggregation. Platelet aggregation was measured by a modification of the method described in A. Wissner, et. al., J. Med. Chem., 27, 1174, 1984.
Approximately 120-240 ml of blood were collected by cardiac puncture from unanesthetized male New Zealand White rabbits (Whaley's Summit View Farms, Belvedere, N.J.) with the use of 3.2% sodium citrate anticoagulant (1 part of citrate/10 parts of blood). All syringes and pipets were plastic. The blood was gently mixed and immediately centrifuged at 800 rpm for 10-15 minutes at room temperature to recover the platelet rich plasma (PRP). Platelet poor plasma (PPP) was prepared by centrifuging PRP at 2800 rpm for 10 minutes at room temperature.
Dilutions (1:3000) of PRP in Isoton® diluent were made and platelet counts were determined on a Coulter Thrombocounter which was standardized with platelet reference standards (Interscience Platelet Control, Portland, Oreg.). PRP platelet counts were adjusted to approximately 400,000-500,000 platelets/μl by the addition of PPP.
L-PAF was obtained from Calbiochem. A stock solution of 1-2 E-3M was prepared in 10% ethanol in water or 100% methanol and serial working dilutions were made using phosphate buffered saline (PBS). 1-2 E-3M stock solutions of test compounds were prepared in 100% methanol and serially diluted in PBS. All solutions were made up in plastic tubes, stored on ice and protected from heat and light. Solutions were prepared fresh or frozen at -20° C. and used within 48 hours.
Incubation mixtures consisted of 400 μl PRP, 50 μl of PBS diluent or test compound and 50 μl of PAF agonist. More specifically, 400 μl of PRP was stabilized in a cuvette for 1-2 minutes at 37° C. in the aggregometer to achieve a stable baseline, then 50 μl of PBS or test compound, was added and incubated for 5 minutes before addition of the challenge concentration of PAF (final concentration of 5E-8M or 1E-7M, as determined from the dose response curve for PAF for that experiment). Aggregation was monitored for 5 minutes. Samples containing test compound or diluent were run simultaneously for comparison. Test compounds were initially evaluated at a screening concentration of 1E-5M.
The recording equipment consisted of a dual channel Chronolog aggregometer connected to a dual channel 10 MV full scale deflection Omniscribe chart recorder (Houston Instruments). […] The bead suspension was used to set the 0% light transmission mark and clear water was used to set the 100% light transmission mark. These limits defined a full scale deflection. The aggregation traces were analyzed by a digitizing method (C. Kohler and B. Zoltan, J. Pharm. Methods, 12, 113, 1984) with x, y coordinate data stored in a computer file. A suitable program computed parameters of interest such as the magnitude of aggregation.

The subject of assay [2] is PAF induced lethality. The experiment in a line: PAF induced lethality in mice. The conditions noted are these: I.P. 10 mg/kg; corrected for control lethality. The assay is classed as in vivo. The protocol:
PAF given I.V. to mice causes an immediate hypotensive shock leading to death in 1 hour or less. Compounds were given intraperitoneally or P.O. at various times before the PAF challenge. Animals alive after 2 hours were counted and the activity of test compounds expressed as % survival corrected for any control (saline treated) animals which survived the PAF challenge.

Where [3] appears, read: rabbit platelet rich plasma, PAF challenge 5E-8M, number of experiments in parentheses, read-out: IC50 inhibition of PAF-induced aggregation.

Each structure is given as a SMILES string. Structures can show the parent of a compound that is named as a salt. Where two headings read alike, the source gives them in different places.

Experimental findings from patent publication US5231091A, “Bis-arylphosphate ester antagonists of platelet activating factor” (priority 1992, dated 1993) are described below.

What is called IC50 is the point on the concentration scale where inhibition reaches its midpoint.

T1 sequence (G1TEI7 1-342): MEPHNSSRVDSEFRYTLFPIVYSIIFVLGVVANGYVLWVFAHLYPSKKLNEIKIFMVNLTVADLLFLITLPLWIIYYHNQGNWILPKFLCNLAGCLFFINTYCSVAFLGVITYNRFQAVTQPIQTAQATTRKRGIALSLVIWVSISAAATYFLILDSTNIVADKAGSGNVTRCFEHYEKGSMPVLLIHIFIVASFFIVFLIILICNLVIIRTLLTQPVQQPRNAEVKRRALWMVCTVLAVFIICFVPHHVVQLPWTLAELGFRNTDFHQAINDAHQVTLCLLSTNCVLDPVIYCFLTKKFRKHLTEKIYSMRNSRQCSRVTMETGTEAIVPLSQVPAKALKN

Turning to `CCCCCCCCCCCCCCCCOc1cccc(OP(=O)([O-])Oc2cccc(C[n+]3cccc4ccccc43)c2)c1C` [1-[[3-[[[3-(hexadecyloxy)-2-methylphenoxy]hydroxyphosphinyl]oxy]phenyl]methyl]quinolinium], in assay [1] (setting [3]), the IC50 was 29.6 µM.

For `CCCCCCCCCCCCCCCCOc1ccc(OP(=O)([O-])Oc2cccc(C[n+]3ccsc3)c2)cc1` [3-[[3-[[[4-(Hexadecyloxy)phenoxy]hydroxyphosphinyl]-oxy]phenyl]methyl]thiazolium, hydroxide, inner salt], the IC50 in assay [1] (setting [3]) is 3.28 µM. Further, the “PAF induced lethality, % protection” value in assay [2] amounted to 96%.

In the case of `Cc1c[n+](Cc2cccc(OP(=O)([O-])Oc3ccc(OCc4ccccc4)cc3)c2)cs1` [3-[[3-[[Hydroxy[4-(phenylmethoxy)phenoxy]phosphinyl]oxy]phenyl]methyl]-5-methyl-thiazolium, hydroxide, inner salt], in assay [1] (setting [3]), the IC50 came out at 1530 µM.

Consider `CCCCCCCCCCCCCCOc1cccc(OP(=O)([O-])Oc2cccc(C[n+]3ccc4ccccc4c3)c2)c1OC` [2-[[3-[[Hydroxy[2-methoxy-3-(tetradecyloxy)phenoxy]-phosphinyl]oxy]phenyl]methyl]-isoquinolinium, hydroxide, inner salt], for which the IC50 in assay [1] (setting [3]) was determined as 20 µM.

As to `CCCCCCCCCCCCCCOc1cccc(OP(=O)([O-])Oc2cccc(C[n+]3csc(C)c3)c2)c1C(=O)OC` [3-[[3-[[Hydroxy[2-(methoxycarbonyl)-3-(tetradecyloxy)phenoxy]phosphinyl]oxy]phenyl]methyl]-5-methylthiazolium, hydroxide, inner salt], in assay [1] (setting [3]), the half-inhibitory concentration (IC50) stood at 0.521 µM. Moreover, the “PAF induced lethality, % protection” value in assay [2] is recorded as 0%.

Take `CCCCCCCCCCCCCCOc1cccc(COP(=O)([O-])Oc2cccc(C[n+]3ccsc3)c2)c1` [3-[[3-[[Hydroxy[[3-(tetradecyloxy)phenyl]methoxy]-phosphinyl]oxy]phenyl]methyl]thiazolium, hydroxide, inner salt]: the half-inhibitory concentration (IC50) in assay [1] (setting [3]) amounted to 4.22 µM.

With `CCCCCCCCCCCCOc1ccc2ccc(OP(=O)([O-])Oc3cccc(C[n+]4ccsc4)c3)cc2c1` [3-[[3-[[[[7-(dodecyloxy)-2-naphthalenyl]oxy]hydroxyphosphinyl]oxy]phenyl]methyl]thiazolium, hydroxide, inner salt], the IC50 in assay [1] (setting [3]) was 26.4 µM.

As for `CCCCCCCCCCCCOc1cccc(OP(=O)([O-])Oc2cccc(C[n+]3ccsc3)c2)c1` [3-[[3-[[[3-(Dodecyloxy)phenoxy]hydroxyphosphinyl]-oxy]phenyl]methyl]thiazolium, hydroxide, inner salt], the IC50 in assay [1] (setting [3]) stood at 52.8 µM.

With `CCCCCCCCCCCCOc1cc(OP(=O)([O-])Oc2cccc(C[n+]3ccsc3)c2)c(C(C)(C)C)cc1C(C)(C)C` [3-[[3-[[[2,4-Bis(1,1-dimethylethyl)-5-(dodecyloxy)phenoxy]hydroxyphosphinyl]oxy]phenyl]methyl]thiazolium, hydroxide, inner salt], the IC50 in assay [1] (setting [3]) came to 30.2 µM.

As to `CCCCCCCCCCCCCCOc1cccc(OP(=O)([O-])Oc2cccc(C[n+]3cccc4ccccc43)c2)c1C(=O)OC` [1-[[3-Hydroxy[2-(methoxycarbonyl)-3-(tetradecyloxy)-phenoxy]phosphinyl]oxy]phenyl]methyl]quinolinium, hydroxide, inner salt], the half-maximal inhibitory concentration (IC50) in assay [1] (setting [3]) stood at 6.26 µM.

Regarding `CCCCCCCCCCCCCCCCOc1cccc(OP(=O)([O-])Oc2cccc(C[n+]3ccccc3)c2)c1` [1-[[3-[[[3-(Hexadecyloxy)phenoxy]hydroxyphosphinyl]-oxy]phenyl]methyl]-pyridinium, hydroxide inner salt], in assay [1] (setting [3]), the IC50 was 15.4 µM.

As to `CCCCCCCCCCCCCCCCOc1cccc(OP(=O)(O)Oc2cccc(C[n+]3cccc4ccccc43)c2)c1` [1-[[3-[[[3-(Hexadecyloxy)phenoxy]hydroxyphosphinyl]-oxy]phenyl]methyl]-quinolinium, hydroxide], in assay [1] (setting [3]), the half-maximal inhibitory concentration (IC50) turned out to be 21.8 µM.

As for `CCCCCCCCCCCCCCCCOc1cccc(OP(=O)([O-])Oc2ccccc2C[n+]2ccsc2)c1` [3-[[2-[[[3-(Hexadecyloxy)phenoxy]hydroxyphosphinyl]oxy]phenyl]methyl]-thiazolium, hydroxide, inner salt], in assay [1] (setting [3]), the IC50 was 6.36 µM.

Turning to `CCCCCCCCCCCCCCOc1cccc(OP(=O)([O-])Oc2cccc(C[n+]3ccsc3)c2)c1C(=O)OC` [3-[[3-[[Hydroxy[2-(methoxycarbonyl)-3-(tetradecyloxy)-phenoxy]phosphinyl]oxy]phenyl]methyl]-thiazolium, hydroxide, inner salt], the IC50 in assay [1] (setting [3]) was 2.7 µM. Also, the “PAF induced lethality, % protection” value in assay [2] came to 12%.

Take `CCCCCCCCCCCCCCCCCCNC(=O)Oc1cccc(OP(=O)([O-])Oc2cccc(C[n+]3ccsc3)c2)c1C` [3-[[3-[[Hydroxy[2-methyl-3-[[(octadecylamino)carbonyl]oxy]phenoxy]phosphinyl]oxy]phenyl]methyl]thiazolium, hydroxide, inner salt]: the midpoint of inhibition in assay [1], the IC50, lay at 3.72 µM.

On to `CCCCCCCCCCCCOc1cc(C(C)(C)C)c(OP(=O)([O-])Oc2cccc(C[n+]3csc(C)c3)c2)cc1C(C)(C)C` [3-[[3-[[[2,5-Bis(1,1-dimethylethyl)-4-(dodecyloxy)phenoxy] hydroxyphosphinyl]oxy]phenyl]methyl]-5-methyl-thiazolium, hydroxide, inner salt], for which the IC50 in assay [1] (setting [3]) was found to be 0.412 µM. Further, the “PAF induced lethality, % protection” value in assay [2] was determined as 36%.

`CCCCCCCCCCCCCCc1cccc(OP(=O)([O-])Oc2cccc(C[n+]3ccsc3)c2)c1` [3-[[3-[[Hydroxy(3-tetradecylphenoxy)phosphinyl]oxy]-phenyl]methyl]thiazolium, hydroxide, inner salt]: in assay [1] (setting [3]), the IC50 was determined as 18.8 µM.

For `CCCCCCCCCCCCOc1cccc(OP(=O)([O-])Oc2cccc(C[n+]3cccc4ccccc43)c2)c1OC` [-[[3-[[[3-(Dodecyloxy)-2-methoxyphenoxy]hydroxyphosphinyl]oxy]phenyl]methyl]quinolinium, hydroxide, inner salt], in assay [1] (setting [3]), the half-maximal inhibitory concentration (IC50) worked out at 24.7 µM.

As for `CCCCCCCCCCCCCCOc1cccc(OP(=O)([O-])Oc2cccc(C[n+]3cccc4ccccc43)c2)c1OC` [1-[[3-[[Hydroxy[2-methoxy-3-(tetradecyloxy)phenoxy]-phosphinyl]oxy]phenyl]methyl]-quinolinium, hydroxide, inner salt], the IC50 in assay [1] (setting [3]) was determined as 8 µM.

For `CCCCCCCCCCCCCCCCCCNC(=O)Oc1cccc(OP(=O)([O-])Oc2cccc(C[n+]3csc(C)c3)c2)c1C` [3-[[3-[[Hydroxy[2-methyl-3-[[(octadecylamino)carbonyl]oxy]phenoxy]phosphinyl]oxy]phenyl]methyl]-5-methylthiazolium, hydroxide, inner salt], 1.8 µM corresponded to half-maximal inhibition in assay [1] (IC50).

`CCCCCCCCCCCCCCOc1cccc(OP(=O)([O-])Oc2cccc(C[n+]3ccccc3)c2)c1OC` [1-[[3-[[Hydroxy[2-methoxy-3-(tetradecyloxy)phenoxy]-phosphinyl]oxy]phenyl]methyl]-pyridinium, hydroxide, inner salt]: in assay [1] (setting [3]), the IC50 turned out to be 165 µM.

In the case of `CCCCCCCCCCCCCCOc1cccc(OP(=O)([O-])Oc2cccc(C[n+]3ccsc3)c2)c1` [3-[[3-[[Hydroxy[3-(tetradecyloxy)phenoxy]phosphinyl]-oxy]phenyl]methyl]thiazolium, hydroxide, inner salt], in assay [1] (setting [3]), the IC50 was found to be 6.15 µM.

As to `CCCCCCCCCCCCOc1cccc(OP(=O)([O-])Oc2cccc(C[n+]3ccsc3)c2)c1OC` [3-[[3-[[[3-(Dodecyloxy)-2-methoxyphenoxy]hydroxyphosphinyl]oxy]phenyl]methyl]thiazolium, hydroxide, inner salt], the IC50 in assay [1] (setting [3]) came out at 1.72 µM.

Regarding `CCCCCCCCCCCCCCOc1cccc(OP(=O)([O-])Oc2cccc(C[n+]3csc(C)c3)c2)c1` [3-[[3-[[Hydroxy[3-(tetradecyloxy)phenoxy]phosphinyl]-oxy]phenyl]methyl]-5-methyl-thiazolium, hydroxide, inner salt], the half-maximal inhibitory concentration (IC50) in assay [1] (setting [3]) came to 8.82 µM.

With `CCCCCCCCCCCCCCOc1ccccc1OP(=O)([O-])Oc1cccc(C[n+]2ccsc2)c1` [3-[[3-[ [Hydroxy[2-(tetradecyloxy)phenoxy]phosphinyl]-oxy]phenyl]methyl]thiazolium, hydroxide, inner salt], the IC50 in assay [1] (setting [3]) worked out at 57.5 µM.
